Experimental data published in patent US20130316374A1, “BREAST CANCER DIAGNOSTICS” (IMBA - INSTITUT FUR MOLEKULARE BIOTECHNOLOGIE GMBH, priority 2010, published 2013).

B1: OPG: secreted decoy receptor that can reduce the RANKL activity (protein, UniProt O00300 22-401, looked up)
Tumor necrosis factor …: ETFPPKYLHYDEETSHQLLCDKCPPGTYLKQHCTAKWKTVCAPCPDHYYTDSWHTSDECLYCSPVCKELQYVKQECNRTHNRVCECKEGRYLEIEFCLKHRSCPPGFGVVQAGTPERNTVCKRCPDGFFSNETSSKAPCRKHTNCSVFGLLLTQKGNATHDNICSGNSESTQKCGIDVTLCEEAFFRFAVPTKFTPNWLSVLVDNLPGTKVNAESVERIKRQHSSQEQTFQLLKLWKHQNKDQDIVKKIIQDIDLCENSVQRHIGHANLTFEQLRSLMESLPGKKVGAEDIEKTIKACKPSDQILKLLSLWRIKNGDQDTLKGLMHALKHSKTYHFPKTVTQSLKKTIRFLHSFTMYKLYQKLFLEMIGNQVQSVKISCL

Tests used:
RANKL = RANKL expression in purified mammary epithelial cells (qRT-PCR, Western blot); format: in vivo, mouse; conditions: nulliparous wild type females, 3 days after implantation/oral gavage
Procedure: a,b, MPA induces RANKL expression in mammary epithelial cells. Nulliparous wild type females were treated with oral gavage of DMBA or oil vehicle, s.c. implanted with slow-release MPA pellets, or treated with sham surgery. a, RANKL mRNA was determined in purified mammary epithelial cells by qRT-PCR 3 days after implantation/oral gavage. Data are shown as fold change compared to sham treatment+/−sem. n=3 mice per group. b, Expression of soluble (s) RANKL protein (19 kDa) was assayed on cell lysates from purified mammary epithelial cells by Western blot 3 days after treatment with oil vehicle, DMBA, MPA, or sham surgery. β-actin is shown as a loading control. […] Data are shown as percentage of tumor-free mice after the last DMBA challenge. No significant difference was found between the Cre+ and the Cre− control groups. Median tumor onset for Cre^+ controls was 9 days, for Cre^− controls 11 days, and for RANK^Δmam females 30 days after the last DMBA treatment. d, Representative Southern blot of MPA/DMBA-induced mammary tumors derived from RANK^flox/+; MMTV-Cre+ and RANK^flox/Δ; MMTV-Cre+ (RANK^Δmam) females. […]
Total RNA of tumors was prepared using the RNeasy Mini Kit (Qiagen), according to the manufacturer's instructions. Total RNA (2 μg) was subjected to quantitative (q)RT-PCR analysis. […]

[1] = tested on: human SKBR3 breast cancer cells; experiment: Soft-Agar Colony Formation Assay; format: cell-based; conditions: OPG (1 μg/ml) with RANKL (1 μg/ml)
Procedure: a, Western blotting for phosphorylated (P) IKKα, total IKKα, phosphorylated (P) p65 NFκB, total p65 NFκB, phosphorylated (P) IκBα, and total IκBα in isolated primary mouse mammary gland epithelial cells (MECs) in response to RANKL stimulation (1 μg/ml). […] is shown as loading control. b, Western blotting for IKKα, IKKβ, IKKγ, phosphorylated (P) p65 NFκB, total p65 NFκB, phosphorylated (P) IκBα, and total IκBα in pooled late stage mammary adenocarconimas (n=4 for each lane) that developed in control, RANK^Δmam, and IKKα^Δmam females. β-actin is shown as loading control c, Expression of RANK, CyclinD1, and p21 mRNA in late stage mammary adenocacinomas that developed in control, RANK^Δmam, and IKKα^Δmam females. Expression was determined by qRT-PCR. Data are mean values+/−sem. n=4 per group. d, Soft-Agar Colony Formation Assay. Growth of human SKBR3 breast cancer cells in soft agar in response to stimulation with RANKL (1 μg/ml) or EGF (100 ng/ml). […] Apoptosis was detected by immunostaining for active Caspase 3. f, Apoptotic nuclei of epithelial cells (arrows) are shown for representative mammary gland sections. Magnifications ×40. g, Quantification of mammary epithelial apoptosis. A minimum of 5000 nuclei was counted for each mouse. […]

Molecule	RANKL mRNA and protein expression in mammary epithelial cells (RANKL)	RANKL-induced colony formation in soft agar [1]
Cc1c2ccccc2c(C)c2c1ccc1ccccc12 [DMBA, dimethylbenz[a]anthracene]	not	
B1		prevented
